“And” between values parts separate entries of the source, which are not always exact repeats. Equal values may be shown once. Read-outs that look alike come from different tables or passages of the source.
Columns and labels:
[1] = tested on: C. parvum; details: Fig 2A Tg_Pf_Cp EC50s; previously reported values, reference not visible in the shown part; cited from earlier work
[2] = molecular target: N. caninum expressing lacZ; test: Neospora caninum β-galactosidase assay; type: cell-based
Method: β-galactosidase assays were conducted using tissue culture grade 96-well plates (TPP) containing confluent monolayers of HFF cells. A 10-point compound dilution series (2-fold) for each compound was generated as described above (2X concentration, 0.1% final DMSO). Growth of the N. caninum strain expressing lacZ was monitoring using a β-galactosidase (β-gal) assay as described in[21] with the following modifications. N. caninum lacZ expressing parasites (1 × 10^3) were added (in 100 μL volume) into 96-well plates containing HFF monolayers to reach final compound concentration (5.0 μM to 0.002 μM in 200 μL total volume). Plates were incubated at 37 °C, 5% CO2 for 72 h prior to completing β-gal assay as previously described[23],[27],[51]. Briefly, parasite containing monolayers were lysed with 1.0% Triton X-100 and β-gal activity determined by adding 1 mM chlorophenolred-β-D-galactopyranoside followed by monitoring absorption at 570 nm on a Cytation 3 multi-mode imager (BioTek), as described.

[3] = tested on: blood-stage P. falciparum; details: Fig 2A Tg_Pf_Cp EC50s; previously reported values, reference not visible in the shown part; cited from earlier work
[4] = molecular target: T. gondii tachyzoites (type II ME49-FLuc); test: Luciferase-based tachyzoite growth assay; type: cell-based, Toxoplasma gondii; design: EC50 log inhib vs normalized response: unit: µM; details: for EC50 log inhib vs normalized response: Fig 1A rank order, T. gondii growth
Method: All assays were carried out in a 96-well plate format containing confluent HFF monolayers to support parasite growth. To avoid edge effects, only the inner 60 wells of each plate were used. All compounds described were provided by the Broad Institute as 10 mM stocks in 100% DMSO and stored at −80 °C prior to use. Pyrimethamine (Sigma-Aldrich) was prepared as 5 mM stock in 100% DMSO and stored at −20 °C prior to use.
All statistical analyses were conducted using Prism 9 (GraphPad Software, Inc.). Dose–response inhibition curves for parasite and host cell toxicity screens (EC50 values) were generated using (Log(inhibitor) vs. normalized response—Variable slope) function. […] For multiple comparisons, two-way ANOVA analysis function using either Sidák’s multiple comparisons test or Dunnett’s multiple comparisons test was applied as indicated.

[5] = tested on: ex vivo T. gondii ME49-FLuc bradyzoites from tissue cysts of chronically infected mice; test: Ex vivo bradyzoite treatment assay (plaque assay); type: cell-based, Toxoplasma gondii; details: Fig 5H top 4, replicates, listed as Pyr
Method: The brains from CBA/J mice chronically infected with the ME49-FLuc strain were harvested, homogenized, and tissue cysts isolated on Percoll gradients, as described previously[9],[27]. Following isolation, purified tissue cysts were treated with acid-pepsin solution ([…] sodium chloride (NaCl), 60 mM hydrochloric acid (HCl) and freshly made pepsin (0.1 mg/mL in 1xPBS) for 10 min at 37 °C. Following acid-pepsin treatment and addition of neutralization buffer (94 mM sodium carbonate (Na2CO3), liberated bradyzoites were equally distributed into 6-well plates with 5 mL culture media containing compounds or vehicle control (0.1–0.2% DMSO final concentration). Plates were incubated undisturbed for 12–14 days followed by fixation in 100% ethanol (ETOH) for 5 min at RT, rinsing with tap water, staining in 0.1% crystal violet solution for 10 min at RT, rinsing in water and air drying. Plaques were quantified on a Zeiss AxioObserver microscope equipped with a ×2.5 objective (Department of Molecular Microbiology Imaging Facility at the Washington University School of Medicine).

[6] = tested on: T. gondii ME49-FLuc tissue cysts; type: in vivo, Ifngr1-/- mice; details: mouse, in vivo
Method: (§1) Ifngr1^−/− (B6.129S7-Ifngr1 ^tm1Agt /J) and CBA/J mice were purchased from Jackson Laboratory and bred locally at Washington University. Animal studies were conducted according to the U.S. Public Health Service policy on human care and use of laboratory animals. Animals were maintained in facilities approved by the Association for Assessment and Accreditation of Laboratory Animal Care. Studies were approved by Division of Comparative Medicine, Washington University. […] Animals were maintained on a 12:12 light cycle, room temperature maintained at 70℉ ± 2℉, and room humidity maintained at 50% ± 20%.
(§2) Testing of compounds to prevent reactivation of chronic infection was […] to test the efficacy of PheRS inhibitors against chronic infection. In both cases, male and female C57BL/6 Ifngr1^−/− mice were infected by oral gavage with 5 cysts of the ME49-Fluc strain isolated from chronically infected CBA/J mice. […] Animals were monitored for survival and weight loss for 30 days post-treatment.

[7] = tested on: T. gondii ME49-FLuc chronic infection; type: in vivo, Ifngr1-/- mice; details: mouse, in vivo
Method: as §1, §2

[8] = Fig S2 source data, read-out: N. caninum (EC50, Fig S2 source data)
[9] = Table S3, 72 h, lacZ, read-out: N. caninum EC50
[10] = Fig S2 source data, read-out: T. gondii (EC50, Fig S2 source data)
[11] = Table S1, ME49-FLuc tachyzoites, read-out: T. gondii EC50
[12] = Toxoplasma gondii, Table S1, ME49-FLuc tachyzoites, read-out: T. gondii EC50
[13] = Fig 2A Tg_Pf_Cp EC50s, read-out: EC50 T. gondii
[14] = Toxoplasma gondii, Fig. 2b, stereoisomers of BRD3444, mean of two biological replicates, read-out: Tg EC50

COc1ccc(NC(=O)N2CCCCCN3[C@H](CO)[C@H](c4ccc(C#Cc5ccccc5)cc4)[C@@H]3C2)cc1 [BRD0185]
EC50 [1]: 33 nM | EC50 [2, 8]: 156 nM | EC50 [2, 9]: 156 nM | EC50 [3]: 87 nM | EC50 log inhib vs normalized response [4]: 0.1693 | EC50 [4, 10]: 169 nM | EC50 [4, 11]: 169 nM

COc1ccc(NC(=O)N2CCCCN3[C@@H](CO)[C@@H](c4ccc(C#Cc5ccccc5)cc4)[C@@H]3C2)cc1 [BRD2430]
EC50 log inhib vs normalized response [4]: 1.548 | EC50 [4, 12]: 1550 nM

COc1ccc(NC(=O)N2CCCCN3[C@H](CO)[C@@H](c4ccc(C#Cc5ccccc5)cc4)[C@@H]3C2)cc1 [BRD2574]
EC50 log inhib vs normalized response [4]: 1.487 | EC50 [4, 12]: 1490 nM

COc1ccc(NC(=O)N2CCCCN3[C@H](CO)[C@H](c4ccc(C#Cc5ccccc5)cc4)[C@]3(CO)C2)cc1 [BRD2936]
EC50 [1]: 1080 nM | EC50 [3]: 1870 nM | EC50 log inhib vs normalized response [4]: 1.687 | EC50 [4, 13]: 1690 nM

COc1ccc(NC(=O)N2CCCCN3[C@H](CO)[C@H](c4ccc(C#Cc5ccccc5)cc4)[C@H]3C2)cc1 [BRD3182]
EC50 log inhib vs normalized response [4]: 1.697 | EC50 [4, 12]: 1700 nM

COc1ccc(NC(=O)N2CCCCN3[C@H](C2)[C@@H](c2ccc(C#Cc4ccccc4)cc2)[C@@H]3CO)cc1 [BRD3801]
EC50 log inhib vs normalized response [4]: 4.096 | EC50 [4, 12]: 4100 nM

COc1ccc(NC(=O)N2CCCCN3C[C@H](c4ccc(C#Cc5ccccc5)cc4)[C@@H]3C2)cc1 [BRD3914]
EC50 [1]: 62 nM | EC50 [2, 8]: 193 nM | EC50 [2, 9]: 193 nM | EC50 [3]: 13 nM | EC50 log inhib vs normalized response [4]: 0.07697 | EC50 [4, 10]: 77 nM | EC50 [4, 11]: 76 nM

COc1ccc(NC(=O)N2CCCCN3[C@H](C2)[C@H](c2ccc(C#Cc4ccccc4)cc2)[C@@H]3CO)cc1 [BRD4569]
EC50 log inhib vs normalized response [4]: 3.376 | EC50 [4, 14]: 3370 nM | EC50 [4, 12]: 3380 nM

COc1ccc(NC(=O)N2CCCCN3[C@H](CO)[C@H](c4ccc(C#Cc5ccccc5C#N)cc4)[C@@H]3C2)cc1 [BRD4873]
EC50 [3]: 261 nM | EC50 log inhib vs normalized response [4]: 0.2134 | EC50 [4, 13]: 213 nM | EC50 [4, 11]: 213 nM

COc1ccc(NC(=O)N2C[C@@H](O)[C@@H](O)CN3[C@H](CN(C)C)[C@H](c4ccc(C#Cc5ccccc5)cc4)[C@@H]3C2)cc1 [BRD5018]
EC50 [2, 8]: 29.9 nM | EC50 [2, 9]: 29 nM | EC50 [3]: 13 nM | EC50 log inhib vs normalized response [4]: 0.03927 | EC50 [4, 10]: 39.3 nM | EC50 [4, 11]: 39 nM

OC[C@@H]1[C@H](c2ccc(C#Cc3ccccc3)cc2)[C@@H]2CN(c3nc4ccccc4s3)CCCCN12 [BRD5349]
EC50 [3]: 8320 nM | EC50 log inhib vs normalized response [4]: 3.944 | EC50 [4, 13]: 3940 nM

COc1ccc(NC(=O)N2CCCCN3[C@H](CO)[C@H](c4ccc(C#CC5CC5)cc4)[C@@H]3C2)cc1 [BRD5774]
EC50 [3]: 12200 nM | EC50 log inhib vs normalized response [4]: 1.609 | EC50 [4, 13]: 1610 nM

O=C(Nc1cccc(F)c1)N1CCCCN2[C@H](CO)[C@H](c3ccc(C#Cc4cccnc4)cc3)[C@@H]2C1 [BRD5999]
EC50 log inhib vs normalized response [4]: 0.4926 | EC50 [4, 11]: 492 nM

COc1ccc(NC(=O)N2CCCCN3[C@H](CN4CCN(C)CC4)[C@H](c4ccc(C#Cc5ccccc5)cc4)[C@@H]3C2)cc1 [BRD6479]
EC50 [3]: 158 nM | EC50 log inhib vs normalized response [4]: 0.4249 | EC50 [4, 13]: 425 nM | EC50 [4, 11]: 424 nM

COc1ccc(NC(=O)N2CCCCN3[C@H](CO)[C@@H](c4ccc(C#Cc5ccccc5)cc4)[C@H]3C2)cc1 [BRD8194]
EC50 log inhib vs normalized response [4]: 2.955 | EC50 [4, 12]: 2960 nM

O=C(NC1CCC1)N1CCCCN2[C@H](CO)[C@H](c3ccc(C#Cc4ccccc4)cc3)[C@@H]2C1 [BRD8260]
EC50 [3]: 19500 nM | EC50 log inhib vs normalized response [4]: 2.575 | EC50 [4, 13]: 2580 nM

COc1ccc(NC(=O)N2CCCCN3[C@H](CN4CCC4)[C@H](c4ccc(C#Cc5ccccc5)cc4)[C@@H]3C2)cc1 [BRD8493]
EC50 [3]: 116 nM | EC50 log inhib vs normalized response [4]: 0.4416 | EC50 [4, 13]: 442 nM | EC50 [4, 11]: 441 nM

COc1ccc(NC(=O)N2CCCCN3[C@@H](CO)[C@H](c4ccc(C#Cc5ccccn5)cc4)[C@@H]3C2)cc1 [BRD9257]
EC50 [3]: 155 nM | EC50 log inhib vs normalized response [4]: 0.6463 | EC50 [4, 13]: 646 nM | EC50 [4, 11]: 646 nM

COc1ccc(NC(=O)N2CCCN3[C@H](CO)[C@H](c4ccc(C#Cc5ccccc5)cc4)[C@@H]3C2)cc1 [BRD9599]
EC50 [1]: 250 nM | EC50 [3]: 850 nM | EC50 log inhib vs normalized response [4]: 1.748 | EC50 [4, 13]: 1750 nM

COc1ccc(NC(=O)N2CCCCN3[C@@H](CO)[C@H](c4ccc(C#Cc5ccccc5)cc4)[C@@H]3C2)cc1 [BRD9995]
EC50 log inhib vs normalized response [4]: 0.1187 | EC50 [4, 14]: 119 nM | EC50 [4, 12]: 118 nM

CCc1nc(N)nc(N)c1-c1ccc(Cl)cc1 [Pyrimethamine, reference compound]
EC50 log inhib vs normalized response [4]: 0.2476 | EC50 ([4]; Toxoplasma gondii, ME49-FLuc, 10-point dose-response, two biological replicates, read-out: EC50, T. gondii tachyzoite growth): 248 nM | EC50 [4, 12]: 247 nM | Ex vivo bradyzoite plaques, normalised to DMSO = 100 ([5]; Constant treatment): 2.0 and 0.5 and 1.9 | Ex vivo bradyzoite plaques, normalised to DMSO = 100 ([5]; Washout): 115.2 and 93 and 95.5

Nc1ccc(S(=O)(=O)Nc2ncccn2)cc1 [sulfadiazine, reference compound]
mean survival [6]: 10 days | Days (survival time of single mouse) [7]: 7 days and 9 days and 29 days and 11 days and 5 days | Survival event flag of single mouse (1 or 0) [7]: 1 and 0
